In patent US20070105782A1, “Protectant Combinations for Reducing Toxicities” (BOARD OF TRUSTEES OF SOUTHERN ILLINOIS UNIVERSITY, priority 2005, published 2007):

Key:
male Wistar rats = conditions: pretreated 30 minutes prior to CDDP infusion
Method: Complete data sets are obtained for five groups of five male Wistar rats (280-421 g). All animals are anesthetized with 1 ml/mg IM of Rompun cocktail (a solution containing 86.21 mg/ml ketamine and 2.76 mg/ml xylazine) prior to all injections and testing. Anesthesia is supplemented as needed with half doses throughout testing. The five groups include: a treated control group which received a dose of CDDP dissolved in normal sterile saline (1 mg of CDDP/ml normal saline; solution pH 6.3) administered by i.p. infusion with a Harvard Apparatus Infusion Pump, over a 30 minute period, an untreated control group that received an equivalent volume of normal saline (pH 6.5) instead of CDDP, and three experimental groups that receive various doses of protectant combination (comprising two or more of methionine protectant agents, carnitine, N-acetylcysteine, magnesium ions, lipoic acid, ebselen, glutathione, and glutathione ester) within the ranges described below dissolved in 3-5 ml of normal saline (solution pH 6.6) delivered by slow (over 1-2 minutes) i.p. injection 30 minutes prior to the same CDDP infusion as the treated control group. Both CDDP (purchased from Sigma Chemical Co., St. Louis) and the protectant combinations are freshly prepared before each experiment.

[1] = cited from earlier work

SMILES: CSCC[C@@H](N)C(=O)O [D-methionine]
- survival until the end of the study period (male Wistar rats): all of the animals in each of these groups are expected to survive
- excreted without conversion to the L-isomer ([1]; humans, except in L-methionine deprivation): 60-70%
- plasma levels compared with L-methionine ([1]; in the human): higher plasma levels than L-methionine
